# Test results from US20200048469A1, “POLYMERIC TANDEM DYES HAVING PENDANT NARROW EMISSION ACCEPTOR” (Becton, Dickinson and Company, priority 2018, published 2020).
# Columns and labels:
# [1] = Spectroscopic characterization of BODIPY dyes (absorption, emission, FWHM, quantum yield); assay type: physicochemical; settings: for Abs Max / Em Max: Table 1, free dye, solvent not stated; for FWHM: Table 1, full width half maximum of emission, free dye
# Protocol: (§1) A variety of BODIPY dyes were prepared and conjugated to polymeric dyes to prepare polymeric tandem dyes. […] The spectroscopic characteristics of particular BODIPY dyes and polymeric tandem dyes including the same were assessed. […] Further details of exemplary BODPY dyes and tandem dyes including the same are provided below in Tables 1 and 2.
# [2] = Absorption and emission spectra of free narrow emission dyes in ethanol; assay type: physicochemical
# Protocol: as §1
Compound,Abs Max [1] [nm],Em Max [1] [nm],FWHM [1] [nm],other results
BODIPY 630/650,630,641,30,–
CF594,–,–,–,Dye Abs. max ([2]; measured in DMAC): 592 nm; Dye Em. FWHM ([2]; measured in DMAC): 37 nm; Dye Em. Max ([2]; measured in DMAC): 615 nm; Dye Stokes Shift ([2]; measured in DMAC): 23 nm
CCN1C(=CC=CC=CC=CC2=[N+](CCCCCC(=O)O)c3ccc(S(=O)(=O)O)cc3C2(C)C)C(C)(C)c2cc(S(=O)(=O)[O-])ccc21 [Cy7],–,–,–,Dye Abs. max ([2]; dye in ethanol): 752 nm; Dye Em. FWHM ([2]; dye in ethanol): 52 nm; Dye Em. Max ([2]; dye in ethanol): 776 nm; Dye Stokes Shift ([2]; dye in ethanol): 24 nm
BODIPY 581/591,582,590,29,–
CCN1/C(=C/C=C/C=C/C2=[N+](CCCCCC(=O)O)c3ccc(S(=O)(=O)O)cc3C2(C)C)C(C)(C)c2cc(S(=O)(=O)[O-])ccc21 [Cy5],–,–,–,Dye Abs. max ([2]; dye in ethanol): 649 nm; Dye Em. FWHM ([2]; dye in ethanol): 35 nm; Dye Em. Max ([2]; dye in ethanol): 666 nm; Dye Stokes Shift ([2]; dye in ethanol): 17 nm
BODIPY TR,590,620,35,–
CCN1\C(=C/C=C/C=C/C2=[N+](CCCCCC(=O)O)c3ccc4c(S(=O)(=O)O)cc(S(=O)(=O)O)cc4c3C2(C)C)C(C)(C)c2c1ccc1c(S(=O)(=O)[O-])cc(S(=O)(=O)O)cc21 [Cy5.5],–,–,–,Dye Abs. max ([2]; dye in ethanol): 673 nm; Dye Em. FWHM ([2]; dye in ethanol): 42 nm; Dye Em. Max ([2]; dye in ethanol): 691 nm; Dye Stokes Shift ([2]; dye in ethanol): 18 nm
Cc1cc(C)n2c1C=C1C=CC(CCC(=O)O)=[N+]1[B-]2(F)F [BODIPY FL],505,513,21,–
BODIPY TMR,550,570,30,–
BODIPY 650/665,650,665,37,–
O=C(O)CCc1ccc2n1[B-](F)(F)[N+]1=C(c3ccccc3)C=CC1=C2 [BODIPY R6G],533,550,26,–
